Measurements as given in ChEMBL document CHEMBL2150993, “Substituted thiazoles VII. Synthesis and antitumor activity of certain 2-(substituted amino)-4-phenyl-1,3-thiazole analogs” (2012).
Calls of active or inactive are those of the source. The rule behind the calls is not given here.

Columns and labels:
Type in all cases: functional
HCT-15 = assay: Growth inhibition of human HCT15 cells after 48 hrs by cell counting analysis; settings: at 10 µM
BT-549 = assay: Growth inhibition of human BT549 cells after 48 hrs by cell counting analysis; settings: at 10 µM
[1] = Antiproliferative activity against human colon cancer cells after 48 hrs by cell counting analysis; settings: Cancer cell lines
MOLT-4 = assay: Growth inhibition of human MOLT4 cells after 48 hrs by cell counting analysis; settings: at 10 µM
MDA-MB-231 = assay: Growth inhibition of human MDA-MB-231 cells after 48 hrs by cell counting analysis; settings: at 10 µM
HT-29 = assay: Growth inhibition of human HT-29 cells after 48 hrs by cell counting analysis; settings: at 10 µM
NCI-H522 = assay: Growth inhibition of human NCI-H522 cells after 48 hrs by cell counting analysis; settings: at 10 µM
SK-MEL-2 = assay: Growth inhibition of human SK-MEL-2 cells after 48 hrs by cell counting analysis; settings: at 10 µM
SF-268 = assay: Growth inhibition of human SF268 cells after 48 hrs by cell counting analysis; settings: at 10 µM
UACC-257 = assay: Growth inhibition of human UACC257 cells after 48 hrs by cell counting analysis; settings: at 10 µM
OVCAR-3 = assay: Growth inhibition of human OVCAR3 cells after 48 hrs by cell counting analysis; settings: at 10 µM
PC-3 = assay: Growth inhibition of human PC3 cells after 48 hrs by cell counting analysis; settings: at 10 µM
UACC-62 = assay: Growth inhibition of human UACC62 cells after 48 hrs by cell counting analysis; settings: at 10 µM
SW-620 = assay: Growth inhibition of human SW620 cells after 48 hrs by cell counting analysis; settings: at 10 µM
EKVX = assay: Growth inhibition of human EKVX cells after 48 hrs by cell counting analysis; settings: at 10 µM
OVCAR-5 = assay: Growth inhibition of human OVCAR5 cells after 48 hrs by cell counting analysis; settings: at 10 µM
NCI-H226 = assay: Growth inhibition of human NCI-H226 cells after 48 hrs by cell counting analysis; settings: at 10 µM
LOX IMVI = assay: Growth inhibition of human LOXIMVI cells after 48 hrs by cell counting analysis; settings: at 10 µM
[2] = Antiproliferative activity against human prostate cancer cells after 48 hrs by cell counting analysis; settings: Cancer cell lines
HL-60 = assay: Growth inhibition of human HL60 cells after 48 hrs by cell counting analysis; settings: at 10 µM
SF-539 = assay: Growth inhibition of human SF539 cells after 48 hrs by cell counting analysis; settings: at 10 µM
SK-MEL-5 = assay: Growth inhibition of human SK-MEL-5 cells after 48 hrs by cell counting analysis; settings: at 10 µM
SK-MEL-28 = assay: Growth inhibition of human SK-MEL-28 cells after 48 hrs by cell counting analysis; settings: at 10 µM
[3] = Growth inhibition of human NCI-322M cells after 48 hrs by cell counting analysis; settings: at 10 µM
[4] = Antiproliferative activity against human renal cancer cells after 48 hrs by cell counting analysis; settings: Cancer cell lines
[5] = Antiproliferative activity against human non-small cell lung cancer cells after 48 hrs by cell counting analysis; settings: Cancer cell lines
OVCAR-4 = assay: Growth inhibition of human OVCAR4 cells after 48 hrs by cell counting analysis; settings: at 10 µM
HCT-116 = assay: Growth inhibition of human HCT116 cells after 48 hrs by cell counting analysis; settings: at 10 µM
SF-295 = assay: Growth inhibition of human SF295 cells after 48 hrs by cell counting analysis; settings: at 10 µM
[6] = Antiproliferative activity against human ovarian cancer cells after 48 hrs by cell counting analysis; settings: Cancer cell lines
SNB-19 = assay: Growth inhibition of human SNB19 cells after 48 hrs by cell counting analysis; settings: at 10 µM
[7] = Antiproliferative activity against human leukemia cells after 48 hrs by cell counting analysis
SK-OV-3 = assay: Growth inhibition of human SKOV3 cells after 48 hrs by cell counting analysis; settings: at 10 µM
[8] = Growth inhibition of human NCI-ADR-RES cells after 48 hrs by cell counting analysis; settings: at 10 µM
RPMI-8226 = assay: Growth inhibition of human RPMI8226 cells after 48 hrs by cell counting analysis; settings: at 10 µM
K562 = assay: Growth inhibition of human K562 cells after 48 hrs by cell counting analysis; settings: at 10 µM
MCF7 = assay: Growth inhibition of human MCF7 cells after 48 hrs by cell counting analysis; settings: at 10 µM
M14 = assay: Growth inhibition of human M14 cells after 48 hrs by cell counting analysis; settings: at 10 µM
SN12C = assay: Growth inhibition of human SN12C cells after 48 hrs by cell counting analysis; settings: at 10 µM
OVCAR-8 = assay: Growth inhibition of human OVCAR8 cells after 48 hrs by cell counting analysis; settings: at 10 µM
HOP-92 = assay: Growth inhibition of human HOP92 cells after 48 hrs by cell counting analysis; settings: at 10 µM
A549 = assay: Growth inhibition of human A549 cells after 48 hrs by cell counting analysis; settings: at 10 µM
Malme-3M = assay: Growth inhibition of human MALME-3M cells after 48 hrs by cell counting analysis; settings: at 10 µM
T47D = assay: Growth inhibition of human T47D cells after 48 hrs by cell counting analysis; settings: at 10 µM
RXF 393 = assay: Growth inhibition of human RXF393 cells after 48 hrs by cell counting analysis; settings: at 10 µM
SNB-75 = assay: Growth inhibition of human SNB75 cells after 48 hrs by cell counting analysis; settings: at 10 µM
[9] = Antiproliferative activity against human CNS cancer cells after 48 hrs by cell counting analysis; settings: Cancer cell lines
HOP-62 = assay: Growth inhibition of human HOP62 cells after 48 hrs by cell counting analysis; settings: at 10 µM
ACHN = assay: Growth inhibition of human ACHN cells after 48 hrs by cell counting analysis; settings: at 10 µM
MDA-MB-435 = assay: Growth inhibition of human MDA-MB-435 cells after 48 hrs by cell counting analysis; settings: at 10 µM
SR = assay: Growth inhibition of human SR cells after 48 hrs by cell counting analysis; settings: at 10 µM
CCRF-CEM = assay: Growth inhibition of human CCRF-CEM cells after 48 hrs by cell counting analysis; settings: at 10 µM
[10] = Antiproliferative activity against human melanoma cells after 48 hrs by cell counting analysis
NCI-H23 = assay: Growth inhibition of human NCI-H23 cells after 48 hrs by cell counting analysis
KM12 = assay: Growth inhibition of human KM12 cells after 48 hrs by cell counting analysis; settings: at 10 µM
U-251 = assay: Growth inhibition of human U251 cells after 48 hrs by cell counting analysis; settings: at 10 µM
UO-31 = assay: Growth inhibition of human UO31 cells after 48 hrs by cell counting analysis; settings: at 10 µM
HCC 2998 = assay: Growth inhibition of human HCC2998 cells after 48 hrs by cell counting analysis; settings: at 10 µM
IGROV-1 = assay: Growth inhibition of human IGROV1 cells after 48 hrs by cell counting analysis; settings: at 10 µM
MDA-MB-468 = assay: Growth inhibition of human MDA-MB-468 cells after 48 hrs by cell counting analysis
TK-10 = assay: Growth inhibition of human TK10 cells after 48 hrs by cell counting analysis
[11] = Antiproliferative activity against human breast cancer cells after 48 hrs by cell counting analysis; settings: Cancer cell lines
CAKI-1 = assay: Growth inhibition of human Caki1 cells after 48 hrs by cell counting analysis; settings: at 10 µM
[12] = read-out: LC50 (the source's name)

Cc1ccc(-c2csc(NC(=O)CCCl)n2)cc1
growth inhibition (GI) (HCT-15): 25.9% | growth inhibition (GI) (BT-549): 72.3% | GI50 [1]: 3.2 µM | TGI [1]: 11.9 µM | CC50 [1, 12]: 39.2 µM | growth inhibition (GI) (MOLT-4): 43.3% | growth inhibition (GI) (MDA-MB-231): 53.5% | growth inhibition (GI) (HT-29): 21% | growth inhibition (GI) (NCI-H522): 41% | growth inhibition (GI) (SK-MEL-2): 54.2% | growth inhibition (GI) (SF-268): 46.3% | growth inhibition (GI) (UACC-257): 41.3% | growth inhibition (GI) (OVCAR-3): 45.3% | growth inhibition (GI) (PC-3): 69.5% | growth inhibition (GI) (UACC-62): 41.8% | growth inhibition (GI) (SW-620): 65.2% | growth inhibition (GI) (EKVX): 50.3% | growth inhibition (GI) (OVCAR-5): 29.3% | growth inhibition (GI) (NCI-H226): 22% | growth inhibition (GI) (LOX IMVI): 45.1% | GI50 [2]: 3.8 µM | TGI [2]: 16.8 µM | CC50 [2, 12]: 63.4 µM | growth inhibition (GI) (HL-60): 41.4% | growth inhibition (GI) (SF-539): 25.2% | growth inhibition (GI) (SK-MEL-5): 16.6% | growth inhibition (GI) (SK-MEL-28): 31% | growth inhibition (GI) [3]: 55.9% | GI50 [4]: 2.8 µM | TGI [4]: 12.5 µM | CC50 [4, 12]: 39.3 µM | GI50 [5]: 6.3 µM | TGI [5]: 20.3 µM | CC50 [5, 12]: 61.5 µM | growth inhibition (GI) (OVCAR-4): 81.5% | growth inhibition (GI) (HCT-116): 46.2% | growth inhibition (GI) (SF-295): 30.2% | GI50 [6]: 4.8 µM | TGI [6]: 31.3 µM | CC50 [6, 12]: 61.1 µM | growth inhibition (GI) (SNB-19): 73.1% | GI50 [7]: 2 µM | TGI [7]: 21.5 µM | CC50 [7, 12]: > 100 µM | growth inhibition (GI) (SK-OV-3): 63% | growth inhibition (GI) [8]: 55.8% | growth inhibition (GI) (RPMI-8226): 80.9% | growth inhibition (GI) (K562): 21.1% | growth inhibition (GI) (MCF7): 65.9% | growth inhibition (GI) (M14): 56.1% | growth inhibition (GI) (SN12C): 33.2% | growth inhibition (GI) (OVCAR-8): 60.6% | growth inhibition (GI) (HOP-92): 50.5% | growth inhibition (GI) (A549): 77.3% | growth inhibition (GI) (Malme-3M): 29.1% | growth inhibition (GI) (T47D): 55.2% | growth inhibition (GI) (RXF 393): 43.8% | growth inhibition (GI) (SNB-75): 34.6% | GI50 [9]: 4.8 µM | TGI [9]: 17.6 µM | CC50 [9, 12]: 50.2 µM | growth inhibition (GI) (HOP-62): 16.2% | growth inhibition (GI) (ACHN): 45.1% | growth inhibition (GI) (MDA-MB-435): 36.9% | growth inhibition (GI) (SR): 88.5% | growth inhibition (GI) (CCRF-CEM): 88.3% | GI50 [10]: 4.2 µM | TGI [10]: 13.4 µM | CC50 [10, 12]: 44.3 µM | growth inhibition (GI) (NCI-H23): Active | growth inhibition (GI) (KM12): 82.4% | growth inhibition (GI) (U-251): 48.5% | growth inhibition (GI) (UO-31): 61.3% | growth inhibition (GI) (HCC 2998): 22.5% | growth inhibition (GI) (IGROV-1): 63.1% | growth inhibition (GI) (MDA-MB-468): Active | growth inhibition (GI) (TK-10): Active | GI50 [11]: 3.3 µM | TGI [11]: 32.3 µM | CC50 [11, 12]: 62.1 µM | growth inhibition (GI) (CAKI-1): 55.6%
